Measured values taken from US12441693B2, “Targeting STAT sumoylation to enhance immune responses” (THE GEORGE WASHINGTON UNIVERSITY, priority 2018, dated 2025).

Assays:
STAT5 = target: T1, STAT5 (Homo sapiens, UniProt P42229); experiment: Cellular thermal shift assay (CETSA) in 293FT-STAT5A cell lysates; assay type: binding
T1 construct: expressed in transfected cells; host or cells: 293FT HEK cells expressing STAT5A (293FT-STAT5A)
T1 sequence (P42229 1-794): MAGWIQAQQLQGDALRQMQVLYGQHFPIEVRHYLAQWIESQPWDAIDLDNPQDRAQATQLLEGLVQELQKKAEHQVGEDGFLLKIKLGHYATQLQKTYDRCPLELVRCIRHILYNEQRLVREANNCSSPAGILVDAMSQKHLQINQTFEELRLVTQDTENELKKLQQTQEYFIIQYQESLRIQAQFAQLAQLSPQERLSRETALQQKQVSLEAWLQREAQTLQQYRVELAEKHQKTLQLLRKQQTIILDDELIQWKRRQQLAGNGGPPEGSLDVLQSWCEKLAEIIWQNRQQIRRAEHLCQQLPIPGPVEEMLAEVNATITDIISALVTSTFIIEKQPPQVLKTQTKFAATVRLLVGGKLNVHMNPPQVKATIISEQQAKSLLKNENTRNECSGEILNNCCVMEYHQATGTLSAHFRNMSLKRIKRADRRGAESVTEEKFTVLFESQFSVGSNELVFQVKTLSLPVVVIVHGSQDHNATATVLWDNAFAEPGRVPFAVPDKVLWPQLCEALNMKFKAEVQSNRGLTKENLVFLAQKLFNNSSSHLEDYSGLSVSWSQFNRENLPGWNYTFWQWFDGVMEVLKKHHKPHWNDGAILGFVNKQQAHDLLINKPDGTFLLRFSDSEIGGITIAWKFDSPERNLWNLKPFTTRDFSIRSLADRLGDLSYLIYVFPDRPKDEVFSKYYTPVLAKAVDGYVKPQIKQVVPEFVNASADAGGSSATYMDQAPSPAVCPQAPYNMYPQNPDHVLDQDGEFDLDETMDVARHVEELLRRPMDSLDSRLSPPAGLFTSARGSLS
Source text: To evaluate whether HODHBt and its analogs were directly binding to STAT5, a recently developed assay, cellular thermal shift assay (CETSA), was used. CETSA is based on the biophysical principle of ligand-induced changes in thermal stability of target proteins. As detailed in Molina & Nordlund, ANNU RE[…]. 2016; 56:141-61, the disclosure of which is hereby incorporated by reference in its entirety, the CETSA assay has been extensively used to identify drug targets using lysates, cells and tissues (FIG. 7A). After heating at different temperatures, the soluble fractions are analyzed for changes in the levels of the target protein (FIG. 7B). Binding of the compound can change the temperature at which the protein is denaturalized (FIG. 7C) leading to a change in the thermal melting curve (FIG. 7D).
First, it was addressed whether HODHBt induced a thermal shift of STAT5 using cell lysates from 293FT-STAT5A. In this assay, high drug concentrations were used to perform CETSA in cell lysates (10,000-20,000 times the IC50). […] Briefly, cell lysates were incubated with either DMSO or HODHBt for 30 minutes at 25° C. After incubation, lysates were heated from 40° C. to 75° C. in 5 degrees intervals and the insoluble fractions were eliminated by centrifugation. […]

[1] = tested on: polyclonally activated CD4 T cells (TCM) killed by CD8 T cells
Source text: An in vitro model to assess the cytolytic potential of human polyclonally activated CD8 T cells was developed. This model relied on the concept of a mix-lymphocyte reaction (MLR) in which CD8 T cells recognize CD4 T cells from a different donor as foreign and induced their killing (FIG. 11A). In this model, polyclonally activated CD8 T cells were co-cultured with polyclonally activated CD4 T cells from a different donor at an effector:target ratio (E:T) of 1:1. Cell death in both CD4 and CD8 subsets was measured at different time points using a fixable viability dye.
To test this hypothesis, polyclonally activated CD8 T cells were co-cultured with polyclonally activated CD4 T cells from a different donor to resemble a mixed-lymphocyte reaction (MLR) at an effector:target ratio (E:T) 1:1 (FIG. 15A). CD4 T cells were activated in conditions that generate central memory CD4 T cells (TCM) cells. CD4 TCM are more resistant to apoptosis than other subsets of CD4 T cells. Cell death in both CD4 and CD8 subsets was measured at 72 hours using a fixable viability dye. Specifically, polyclonally activated CD4 T cells and CD8 T cells were co-cultured and cell death was measured at 72 hours. […] Using this assay, it was tested whether HODHBt increased the cytolytic capacity of CD8 T cells in two experimental set ups.

[2] = tested on: STAT5 transcriptional activity; experiment: Primary cell screening assay (CD69 expression, STAT5 transcriptional activity); assay type: cell-based; details: primary human CD4 T cells
Method: It was observed that the ability of different benzotriazole and benzotriazin derivatives to increase STAT5 phosphorylation correlated with the ability of the compounds to induce the expression of CD69 (a STAT5 target gene) (FIG. 2A) but not CD25 (FIG. 2B) in the surface of human CD4 T cells. Based on these findings, a primary cell screening assay was set up according to FIG. 2C to identify derivatives with similar activity. As an example, flow cytometry was performed to isolated activated cells (FIG. 2D), which were expanded in the presence of DMSO or a compound of interest (FIG. 2E), and screened for changes in the expression of CD69 (FIG. 2F).

CD4 T cells = experiment: Expansion of activated CD4 T cells with IL-2; assay type: cell-based, human; details: activated in vitro, IL-2, vs DMSO
Source text: For these tests, human CD4 and CD8 T cells were activated in vitro and expanded with interleukin-2 (IL-2) in the presence of DMSO (control vehicle) or HODHBt.

SMILES: O=c1c2ccccc2nnn1O [HODHBt]
- high molecular band generated (size of STAT5 dimer) (STAT5; lysates incubated with HODHBt, Western blot): approximately 188 kDa
- thermal melting curve of STAT5 (STAT5; lysates, 5 mM, 30 minutes at 25° C, heated 40-75° C): drastically changed the thermal melting curve of STAT5, promoting its degradation
- killing capacity of CD8 T cells expanded in the presence of compound ([1]; CD8 T cells expanded in the presence of HODHBt): higher killing capacity
- killing capacity of CD8 T cells over TCM cells ([1]; HODHBt added during the MLR reaction, 72 hours): increased the killing capacity of CD8 T cells over TCM cells in a dose dependent manner
- CD8 T cell death in co-culture ([1]; human): no increase in cell death in CD8 T cells in any of the experimental conditions
- toxicity on CD8 T cells ([1]; human, 72 h): no overt toxicity on CD8 T cells
- CD4 T cell death in co-culture with CD8 T cells ([1]; time course, fixable viability dye): detected only in the co-culture treated with HODHBt at 72 hours and 96 hours
- STAT5 transcriptional activity relative to HODHBt [2]: the compound with the strongest activity
- EC50 ([2]; read-out: EC50 in the primary cell screening method): ~63 µM
- expansion of CD4 T cells (CD4 T cells): increased expansion
